Experimental findings from patent US11253524B2 (Gilead Sciences, Inc., priority 2018, dated 2022) are described below.

The target in the data set is T1, human hepatic microsomal UGT1A1 (Homo sapiens, UniProt P22309).
T1 sequence (P22309 26-533): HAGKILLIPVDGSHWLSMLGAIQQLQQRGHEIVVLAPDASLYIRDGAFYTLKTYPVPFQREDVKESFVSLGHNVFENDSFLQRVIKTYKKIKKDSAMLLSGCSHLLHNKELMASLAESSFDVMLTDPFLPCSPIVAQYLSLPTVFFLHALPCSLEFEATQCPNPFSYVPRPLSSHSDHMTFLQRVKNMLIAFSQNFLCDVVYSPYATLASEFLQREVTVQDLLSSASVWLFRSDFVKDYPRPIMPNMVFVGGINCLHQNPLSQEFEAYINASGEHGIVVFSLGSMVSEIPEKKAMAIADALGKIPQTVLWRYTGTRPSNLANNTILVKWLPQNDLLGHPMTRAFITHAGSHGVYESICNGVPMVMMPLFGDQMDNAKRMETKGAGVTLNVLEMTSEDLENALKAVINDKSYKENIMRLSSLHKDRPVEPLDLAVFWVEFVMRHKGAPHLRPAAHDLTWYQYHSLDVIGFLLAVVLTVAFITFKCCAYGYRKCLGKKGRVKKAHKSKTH
The data set can be described thus: biochemical. The following applies: for Stimulation of enzyme activity, peak increase: at 200 μM. How it is done:
The conditions for the assay were determined to be linear with respect to microsomal protein concentration and incubation time. […] Microsomal UGT1A1 activity was determined in duplicate. […] Diluted microsomal fraction was incubated on ice for 15 minutes with alamethicin, magnesium chloride and SACLAC. Substrate and inhibitor were then added and the mixture warmed to 37° C. for 0.5 minute. The reaction was initiated by the addition of UDP glucuronic acid in potassium phosphate buffer. The incubation continued at 37° C. with shaking and no light exposure for 2 minutes. Reactions were terminated by addition of one volume of 200 mM ascorbic acid in methanol, containing 200 nM 2-(N-(2-ethylphenyl)methylsulfonamido)-N-(2-(pyridin-2-ylthio)ethyl)acetamide as the internal standard.
A Shimadzu UFLC XR UPLC system was used for analysis. The column used was a Thermo-Hypersil Gold 1.9 μm C18 column (30×2.1 mm) held at 60° C. Mobile phases were; A: water containing 0.1% (v/v) formic acid, and B: acetonitrile containing 0.1% (v/v) formic acid, pumped at 0.7 mL/minute. Elution was achieved by a series of linear gradients over 2 minutes. The mass spectrometer was an Applied Biosciences SCIEX QTRAP 5500 triple quadrupole mass spectrometer with an electrospray interface operating in positive ion mode. Quantification was by metabolite/internal standard peak area ratio (PAR).
MS/MS transitions ([M+H]+) of m/z 761.2/475.1 and 937.2/475.1 for the monoglucuronide and diglucuronide, respectively. The PAR values for the two monoglucuronides were combined for quantification.
Reaction velocities were calculated from the rates of formation of the metabolites and were compared to those seen with the vehicle control (100% activity). IC50 values were calculated by non-linear regression using GraphPad Prism 7.03 and a sigmoidal three parameter inhibition model. […] During the testing period the inhibitory potency of atazanavir was determined four times, with each concentration tested in duplicate in each determination. The data from all runs were pooled and a global fit performed to determine the lower plateau value. […] For atazanavir, the IC50 values from the four duplicate runs were combined to generate a summary geometric mean and multiplicative standard deviation for this positive control inhibitor.

Structures are written as SMILES. pIC50: −log10 of the molar value. Bounds are passed on as bounds.

As usually defined, the pIC50 is −log10 of the IC50, conventionally taken in molar units. The low end stands for a large IC50, the high end for a small IC50. On to `O=C(NCc1c(F)cc(F)cc1F)c1cn2c(c(O)c1=O)C(=O)N1[C@H]3CC[C@H](C3)O[C@@H]1C2` [BIC, bictegravir, reference compound], for which the pIC50 is below 3.52 and the “Stimulation of enzyme activity, peak increase” value is given as 76%.
On to `O=C(NCc1c(F)cc(F)cc1F)c1cn2c(c(O[C@@H]3O[C@H](C(=O)O)[C@@H](O)[C@H](O)[C@H]3O)c1=O)C(=O)N1[C@H]3CC[C@H](C3)O[C@@H]1C2` [Metabolite M15], for which the pIC50 was below 3.52 and the “Stimulation of enzyme activity, peak increase” value stood at 21%.
The compound `O=C(NCc1c(F)cc(F)c(OS(=O)(=O)O)c1F)c1cn2c(c(O)c1=O)C(=O)N1C(C2)O[C@@H]2CC[C@H]1C2` (stereo partly drawn) [Metabolite M20] gave a pIC50 of 3.82.
On the same count and under the same terms, the figure for `O=C(NCc1c(F)cc(F)c(O)c1F)c1cn2c(c(O)c1=O)C(=O)N1[C@H]3CC[C@H](C3)O[C@@H]1C2` [Metabolite M23] is 3.59.
